From patent US20230257385A1, “SALT AND SOLID FORMS OF TABERNANTHALOG” (priority 2021, published 2023)

What was measured:
[1] = format: physicochemical; conditions: salt screen, Experiment 2
Description: Tabernanthalog (native) (50 mg, 1 wt) was charged to a solution of the relevant counter ion (1.0 mol equivalence of counter ion) in ethanol (5.0 vol, 250 μl). The mixtures were warmed to 85° C. and small aliquots of water were added until dissolution occurred (Table 212 for additional charges of solvent). The solutions were cooled and allowed to stand undisturbed under sub-ambient conditions overnight (Table 211). […] Products were isolated via centrifugation. The corresponding pellets were sub-sampled and analyzed wet by XRPD; after which, they were dried at 40° C. under reduced pressure over 20 h and reanalyzed by XRPD. […] Once the crystallization experiments were completed, salt formation was confirmed by ^1H NMR, XRPD, DSC and TGA.

[2] = Heat-up/cool down (HUCD) crystallization of the monofumarate salt (Experiment Reference 11); format: physicochemical; conditions: for XRPD (oven dried): form of product from HUCD crystallization of tabernanthalog fumarate Sample Reference 1 (Pattern #1), solvents per sample as in E1; for Observations (t = 0 @ T = 20° C.): input tabernanthalog fumarate Sample Reference 1 (Pattern #1), Solvent A/B: 11-A acetone/water, 11-B acetonitrile/water, 11-C butanol/water, 11-D tBME/methanol, 11-E DCM/methanol, 11-F ethanol/water, 11-G methyl acetate/water/methanol, 11-H 2-propanol/water, 11-1 methanol, 11-J MEK/water, 11-K 2-MeTHF/methanol, 11-L THF/water, 11-M toluene/methanol, 11-N water, 11-O dioxane/water, 11-P CPME/methan
Description: Separate portions of the tabernanthalog monofumarate salt (Pattern #1, Sample Reference 1, ca 75 mg, 1.0 wt.) were charged to separate vessels. The appropriate solvents (750 μl, 10.0 vol, refer to Table 106) were charged to the relevant vessels and subsequent charges of the appropriate co-solvent were made to accomplish dissolution at reflux. The solutions were cooled to 18 to 23° C. and allowed to stand undisturbed, until crystallization was judged complete. After this time the products were isolated by centrifugation, washed with recycled maturation solvent, dried under reduced pressure at 40° C. and analyzed by XRPD for evidence of alternative crystalline forms.

[3] = Targeted solubility of Tabernanthalog (native) in common solvents (Example 8, Experiment 1); format: physicochemical
Description: The solutions were observed after cooling to determine if crystallization occurred on standing at room temperature.
To portions of tabernanthalog (native) (50 mg, 1 wt), were added 5 vol aliquots of the relevant solvent (Table 198). Observations were made at 20° C., 40° C. and reflux and the mixtures were cooled to 20° C. Contingent upon these findings, an additional 5 vol aliquot of the relevant solvent was added and the process was repeated until 20 vol of solvent was added in total.

[4] = Examination of variability of fusion temperature of sorbate Form A (DSC); format: physicochemical
Description: The factors that were assessed to explain the observed variability in fusion temperature found amongst Form A samples were sample loading, preferred orientation and particle size/homogeneity (Table 271). A weak relationship between sample loading and melt onset was observed, the remainder of the factors examined, appeared to be unrelated.
DSC data were collected from 25 to 220C at a scan rate of at 10° C. min^−1 (Table 292).

[5] = DSC 25-220° C. at 10° C. min^−1, batches of sorbate salt Form A
[6] = DSC 25 to 220C at 10° C. min−1, tabernanthalog sorbate Form A samples
[7] = DSC melt endset, 25 to 220C at 10° C. min−1, tabernanthalog sorbate Form A samples
[8] = DSC melt peak, 25 to 220C at 10° C. min−1, tabernanthalog sorbate Form A samples

SMILES: COc1ccc2c3c([nH]c2c1)CCN(C)CC3.O=S(=O)(O)CCS(=O)(=O)O [Tabernanthalog · Edisylate]
- Unique XRPD? [1]: Disordered

SMILES: COc1ccc2c3c([nH]c2c1)CCN(C)CC3.O=C(O)/C=C/C(=O)O [Sample 11-Q]
- XRPD (oven dried) [2]: Pattern #5
- Observations (t = 0 @ T = 20° C.) [2]: solution

SMILES: COc1ccc2c3c([nH]c2c1)CCN(C)CC3.O=C(O)C[C@H](O)C(=O)O [Tabernanthalog · Malate]
- Discrete melt (DSC)? [1]: ✓
- Flat baseline (DSC)? [1]: ✓
- Flat baseline pre-melt (TGA)? [1]: ✓
- Unique XRPD? [1]: ✓

SMILES: COc1ccc2c3c([nH]c2c1)CCN(C)CC3 [Tabernanthalog (native), 8-Methoxy-3-methyl-2,4,5,6-tetrahydro-1H-azepino[4,5-b]indole]
- Solid on cooling ([3]; 2-Methyl THF, 5 vol): Yes
- Solution at reflux ([3]; 2-Methyl THF, 5 vol): ✓
- Solid on cooling ([3]; 2-Propanol, 5 vol): Yes
- Solution at reflux ([3]; 2-Propanol, 5 vol): ✓
- solubility in common solvents at 20° C. ([3]; 19 common solvents): freely soluble in most common solvents investigated at 20° C., apart from tBME, heptane and water
- solubility in common solvents at reflux ([3]; 19 common solvents, various volumes): soluble in 16 solvents at reflux
- Solid on cooling ([3]; Acetone, 5 vol): Yes
- Solution at reflux ([3]; Acetone, 5 vol): ✓
- Solid on cooling ([3]; Acetonitrile, 10 vol): Yes
- Solution at reflux ([3]; Acetonitrile, 10 vol): ✓
- Solid on cooling ([3]; Chlorobenzene, 5 vol): Yes
- Solution at reflux ([3]; Chlorobenzene, 5 vol): ✓
- Solid on cooling ([3]; Dichloromethane, 5 vol): Yes
- Solution at reflux ([3]; Dichloromethane, 5 vol): ✓
- Solid on cooling ([3]; Ethanol, 5 vol): Yes
- Solution at reflux ([3]; Ethanol, 5 vol): ✓
- Solid on cooling ([3]; Ethyl acetate, 10 vol): Yes
- Solution at reflux ([3]; Ethyl acetate, 10 vol): ✓
- Solid on cooling ([3]; Ethyl formate, 10 vol): Yes
- Solution at reflux ([3]; Ethyl formate, 10 vol): ✓
- Solid on cooling ([3]; Isopropyl acetate, 15 vol): Yes
- Solution at reflux ([3]; Isopropyl acetate, 15 vol): ✓
- Solid on cooling ([3]; Methanol, 5 vol): Yes
- Solution at reflux ([3]; Methanol, 5 vol): ✓
- Solid on cooling ([3]; Methyl acetate, 10 vol): Yes
- Solution at reflux ([3]; Methyl acetate, 10 vol): ✓
- Solid on cooling ([3]; Methylethyl ketone, 5 vol): Yes
- Solution at reflux ([3]; Methylethyl ketone, 5 vol): ✓
- Solid on cooling ([3]; Nitromethane, 5 vol): Yes
- Solution at reflux ([3]; Nitromethane, 5 vol): ✓
- Solid on cooling ([3]; Tetrahydrofuran, 5 vol): Yes
- Solution at reflux ([3]; Tetrahydrofuran, 5 vol): ✓
- Solid on cooling ([3]; Toluene, 15 vol): Yes
- Solution at reflux ([3]; Toluene, 15 vol): ✓

SMILES: COc1ccc2c3c([nH]c2c1)CCN(C)CC3.O=P(O)(O)O [Tabernanthalog · Phosphate]
- Discrete melt (DSC)? [1]: ✓
- Flat baseline (DSC)? [1]: ✓
- Unique XRPD? [1]: Disordered

SMILES: COc1ccc2c3c([nH]c2c1)CCN(C)CC3.Cc1ccc(S(=O)(=O)O)cc1 [Tabernanthalog · Tosylate]
- Discrete melt (DSC)? [1]: ✓
- Flat baseline (DSC)? [1]: ✓
- Flat baseline pre-melt (TGA)? [1]: ✓
- Unique XRPD? [1]: ✓

SMILES: COc1ccc2c3c([nH]c2c1)CCN(C)CC3.O=C(O)/C=C/C(=O)O [Sample 11-G]
- XRPD (oven dried) [2]: Pattern #1
- Observations (t = 0 @ T = 20° C.) [2]: suspension

SMILES: COc1ccc2c3c([nH]c2c1)CCN(C)CC3.O=C(O)/C=C/C(=O)O [Sample 11-B]
- XRPD (oven dried) [2]: Pattern #6a
- Observations (t = 0 @ T = 20° C.) [2]: cloudy

SMILES: COc1ccc2c3c([nH]c2c1)CCN(C)CC3.O=C(O)/C=C/C(=O)O [Sample 11-F]
- XRPD (oven dried) [2]: Pattern #6a
- Observations (t = 0 @ T = 20° C.) [2]: suspension

SMILES: COc1ccc2c3c([nH]c2c1)CCN(C)CC3.O=C(O)CC(O)(CC(=O)O)C(=O)O [Tabernanthalog · Citrate]
- Unique XRPD? [1]: v. Disordered

SMILES: COc1ccc2c3c([nH]c2c1)CCN(C)CC3.O=C(O)/C=C/C(=O)O [Sample 11-A]
- XRPD (oven dried) [2]: Pattern #6a
- Observations (t = 0 @ T = 20° C.) [2]: suspension

SMILES: COc1ccc2c3c([nH]c2c1)CCN(C)CC3.O=C(O)/C=C/C(=O)O [Sample 11-P]
- XRPD (oven dried) [2]: Pattern #5
- Observations (t = 0 @ T = 20° C.) [2]: suspension

SMILES: COc1ccc2c3c([nH]c2c1)CCN(C)CC3.O=C(O)/C=C/C(=O)O [Sample 11-1]
- XRPD (oven dried) [2]: Pattern #6b
- Observations (t = 0 @ T = 20° C.) [2]: suspension

SMILES: COc1ccc2c3c([nH]c2c1)CCN(C)CC3.O=C(O)/C=C/C(=O)O [Sample 11-M]
- XRPD (oven dried) [2]: Pattern #6b
- Observations (t = 0 @ T = 20° C.) [2]: suspension

SMILES: COc1ccc2c3c([nH]c2c1)CCN(C)CC3.O=C(O)/C=C/C(=O)O [Sample 11-C]
- XRPD (oven dried) [2]: Pattern #6a
- Observations (t = 0 @ T = 20° C.) [2]: suspension

SMILES: C/C=C/C=C/C(=O)O.COc1ccc2c3c([nH]c2c1)CCN(C)CC3 [Pattern A1270-20-V2]
- Endset [4, 5]: 152.0 °C
- melt enthalpy [4, 5]: −84.1 Jg^−1
- melt onset [4, 5]: 143.9 °C
- peak [4, 5]: 148.8 °C
- melt enthalpy [4, 6]: −84.09 Jg-1
- melt onset [4, 6]: 143.89 °C
- Endset [4, 7]: 151.95 °C
- peak [4, 8]: 148.83 °C

SMILES: COc1ccc2c3c([nH]c2c1)CCN(C)CC3.O=C(O)/C=C/C(=O)O [Sample 11-N]
- XRPD (oven dried) [2]: Pattern #6a
- Observations (t = 0 @ T = 20° C.) [2]: suspension

SMILES: COc1ccc2c3c([nH]c2c1)CCN(C)CC3.O=C(O)C=CC(=O)O [Tabernanthalog · Maleate]
- Unique XRPD? [1]: Disordered

SMILES: COc1ccc2c3c([nH]c2c1)CCN(C)CC3.O=C(O)[C@@H](O)[C@H](O)[C@H](O)[C@@H](O)C(=O)O [Tabernanthalog · Galactarate]
- Flat baseline pre-melt (TGA)? [1]: ✓
- Unique XRPD? [1]: v. Disordered

SMILES: C/C=C/C=C/C(=O)O.COc1ccc2c3c([nH]c2c1)CCN(C)CC3 [Experiment 6-Sample C1]
- Endset [4, 5]: 151.0 °C
- melt enthalpy [4, 5]: −100.5 Jg^−1
- melt onset [4, 5]: 144.7 °C
- peak [4, 5]: 148.8 °C
- melt enthalpy [4, 6]: −100.48 Jg-1
- melt onset [4, 6]: 144.66 °C
- Endset [4, 7]: 151.02 °C
- peak [4, 8]: 148.83 °C

SMILES: COc1ccc2c3c([nH]c2c1)CCN(C)CC3.O=C(O)/C=C/C(=O)O [Sample 11-D]
- XRPD (oven dried) [2]: Pattern #5
- Observations (t = 0 @ T = 20° C.) [2]: cloudy

SMILES: COc1ccc2c3c([nH]c2c1)CCN(C)CC3.O=C(O)/C=C/C(=O)O [Sample 11-O]
- XRPD (oven dried) [2]: Pattern #6a
- Observations (t = 0 @ T = 20° C.) [2]: suspension

SMILES: C/C=C/C=C/C(=O)O.COc1ccc2c3c([nH]c2c1)CCN(C)CC3 [Experiment 6-Sample D1]
- Endset [4, 5]: 150.2 °C
- melt enthalpy [4, 5]: −105.7 Jg^−1
- melt onset [4, 5]: 144.0 °C
- peak [4, 5]: 148.0 °C
- melt enthalpy [4, 6]: −166.35 Jg-1
- melt onset [4, 6]: 144.03 °C
- Endset [4, 7]: 150.17 °C
- peak [4, 8]: 148.00 °C

SMILES: COc1ccc2c3c([nH]c2c1)CCN(C)CC3.O=C[C@H](O)[C@@H](O)[C@H](O)[C@H](O)C(=O)O [Tabernanthalog · Glucuronate]
- Discrete melt (DSC)? [1]: ✓
- Flat baseline (DSC)? [1]: ✓
- Flat baseline pre-melt (TGA)? [1]: ✓
- Unique XRPD? [1]: ✓

SMILES: COc1ccc2c3c([nH]c2c1)CCN(C)CC3 [Tabernanthalog · Sorbate]
- Discrete melt (DSC)? [1]: ✓
- Flat baseline (DSC)? [1]: ✓
- Flat baseline pre-melt (TGA)? [1]: ✓
- Unique XRPD? [1]: ✓

SMILES: COc1ccc2c3c([nH]c2c1)CCN(C)CC3.O=C(O)/C=C/C(=O)O [Sample 11-J]
- XRPD (oven dried) [2]: Pattern #6a
- Observations (t = 0 @ T = 20° C.) [2]: suspension

SMILES: COc1ccc2c3c([nH]c2c1)CCN(C)CC3.O=C(O)CCCCC(=O)O [Tabernanthalog · Adipate]
- Discrete melt (DSC)? [1]: ✓
- Flat baseline (DSC)? [1]: ✓
- Unique XRPD? [1]: ✓

SMILES: COc1ccc2c3c([nH]c2c1)CCN(C)CC3.O=S(=O)(O)O [Tabernanthalog · Sulfate]
- Unique XRPD? [1]: Amorphous

SMILES: COc1ccc2c3c([nH]c2c1)CCN(C)CC3.O=C(O)/C=C/C(=O)O [Sample 11-E]
- XRPD (oven dried) [2]: Pattern #6b
- Observations (t = 0 @ T = 20° C.) [2]: suspension

SMILES: COc1ccc2c3c([nH]c2c1)CCN(C)CC3.O=C(O)/C=C/C(=O)O [Sample 11-L]
- XRPD (oven dried) [2]: Pattern #6a
- Observations (t = 0 @ T = 20° C.) [2]: solution

SMILES: COc1ccc2c3c([nH]c2c1)CCN(C)CC3.O=C(O)/C=C/C(=O)O [Sample 11-K]
- XRPD (oven dried) [2]: Pattern #5
- Observations (t = 0 @ T = 20° C.) [2]: suspension

SMILES: COc1ccc2c3c([nH]c2c1)CCN(C)CC3.O=C(O)/C=C/C(=O)O [Sample 11-H]
- XRPD (oven dried) [2]: Pattern #6a
- Observations (t = 0 @ T = 20° C.) [2]: cloudy
